“And” between values parts separate entries of the source, which are not always exact repeats. Equal entries are not always repeated. Where two headings read alike, the source gives them in different places.
What was measured:
[1] = molecular target: T1, BuChE (Homo sapiens, UniProt P06276); experiment: Kinetic parameters of enzymatic reaction (Hanes–Woolf), BuChE; assay type: biochemical; parameters: The solution of plasma 200-fold diluted with 0.9% NaCl; from tissue; host or cells: citrated plasma from blood of healthy human donors
T1 sequence (P06276 29-602): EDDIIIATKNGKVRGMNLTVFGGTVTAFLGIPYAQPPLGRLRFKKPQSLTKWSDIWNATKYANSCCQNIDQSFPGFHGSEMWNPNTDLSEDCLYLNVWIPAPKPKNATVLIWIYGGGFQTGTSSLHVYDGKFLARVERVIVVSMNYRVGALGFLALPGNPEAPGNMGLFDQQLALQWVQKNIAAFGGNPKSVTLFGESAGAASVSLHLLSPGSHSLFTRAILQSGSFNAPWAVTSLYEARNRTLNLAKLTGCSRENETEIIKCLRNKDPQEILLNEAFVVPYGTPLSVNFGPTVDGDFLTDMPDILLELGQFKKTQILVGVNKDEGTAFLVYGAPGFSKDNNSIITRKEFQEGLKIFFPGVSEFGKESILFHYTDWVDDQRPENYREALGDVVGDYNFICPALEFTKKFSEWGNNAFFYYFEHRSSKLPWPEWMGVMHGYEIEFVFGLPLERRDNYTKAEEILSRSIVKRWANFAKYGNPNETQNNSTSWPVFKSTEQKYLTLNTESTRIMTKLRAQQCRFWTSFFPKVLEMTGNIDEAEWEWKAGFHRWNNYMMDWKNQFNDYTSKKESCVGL
Experimental: Kinetic parameters were obtained on the basis of three individual experiments carried out on different biological materials. For this purpose, various concentrations of substrates (ATC and BTC) were used in experiments. The type of inhibition and kinetic parameters of enzymatic reactions were obtained by linear regression using the Hanes–Woolf equations.
AChE SI (selectivity index) was calculated by using the following formula: SI = IC50 of BuChE/IC50 of AChE. However, BuChE SI was defined as IC50 of AChE/IC50 of BuChE. Maximal velocity (Vmax) and the Michaelis constant (Km) were calculated with the use of linear regression—according to the Hanes–Woolf plot.

[2] = molecular target: T2, human plasma butyrylcholinesterase (Homo sapiens, UniProt P06276); experiment: BuChE inhibition, modified Ellman's method; assay type: biochemical; settings: experimental data; mean ± SD, n = 6–9; read-out: IC50 BuChE
T2 construct: The solution of plasma 200-fold diluted with 0.9% NaCl; from tissue; host or cells: citrated plasma from blood of healthy human donors
T2 sequence (P06276 29-602): as above

[3] = molecular target: T1, BuChE; experiment: Synergism of antipsychotics with donepezil/rivastigmine (binary mixtures), BuChE; settings: ComboSyn;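 also: combination index derived by median-effect analysis of combined drug effects on the cholinesterase, with values below 1 meaning synergism, exactly 1 additivity and above 1 antagonism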
Text: In turn, the concentrations of antipsychotics were constant in every measurement, and were chosen on the basis of estimated therapeutic plasma concentrations.
Automatic simulation of synergism and antagonism at all doses or effect levels is possible by computer software, based on algorithms. Calculation of the combination index (CI) and isobologram analyses enable to quantitatively determine drug interactions, where CI < 1, =1 and >1 indicate synergism, additive effect and antagonism, respectively. […] The software also allowed us to display the dose–effect curve, the median–effect plot and the dose-reduction index (DRI) plot [36].

[4] = molecular target: T3, human erythrocyte acetylcholinesterase (Homo sapiens, UniProt P22303); experiment: AChE inhibition, modified Ellman's method; assay type: biochemical
T3 construct: solution of hemolyzed erythrocytes diluted 400-fold; from tissue; host or cells: hemolyzed erythrocytes from blood of healthy human donors
T3 sequence (P22303 32-617 isoform P22303-2 limits assumed): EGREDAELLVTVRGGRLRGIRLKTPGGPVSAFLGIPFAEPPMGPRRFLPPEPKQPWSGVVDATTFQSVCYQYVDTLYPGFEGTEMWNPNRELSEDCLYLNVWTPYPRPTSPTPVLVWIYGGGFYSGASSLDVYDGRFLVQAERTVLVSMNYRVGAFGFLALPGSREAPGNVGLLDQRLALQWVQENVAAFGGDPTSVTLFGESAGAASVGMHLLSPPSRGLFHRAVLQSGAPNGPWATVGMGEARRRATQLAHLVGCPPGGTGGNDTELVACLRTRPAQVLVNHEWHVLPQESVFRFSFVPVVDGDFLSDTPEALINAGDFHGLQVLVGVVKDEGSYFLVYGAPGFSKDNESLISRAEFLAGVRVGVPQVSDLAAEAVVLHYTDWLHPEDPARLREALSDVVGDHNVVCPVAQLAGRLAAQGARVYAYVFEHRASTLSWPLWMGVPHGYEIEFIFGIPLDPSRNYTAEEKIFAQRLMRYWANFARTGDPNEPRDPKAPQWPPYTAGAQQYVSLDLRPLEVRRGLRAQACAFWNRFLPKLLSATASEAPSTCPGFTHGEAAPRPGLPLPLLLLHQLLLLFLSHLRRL

[5] = system: human erythrocytes; experiment: Methemoglobin formation in RBC with AAPH; assay type: cell-based; settings: 5 h, AAPH control 61.9%
Experimental: The blood samples were centrifuged (3000 rpm, 10 min, 20 °C, Micro 22 R centrifuge, Hettich Zentrifugen, Tuttlingen, Germany) to separate erythrocytes from the plasma and washed three times with 0.9% saline (NaCl). […] The erythrocytes were suspended in 0.9% saline. As control of basal hemolysis, erythrocytes were incubated with 0.9% NaCl. For total hemolysis control erythrocytes were incubated with 2.0% v/v Triton X-100. Incubation with Triton X-100 and K4[Fe(CN)6] (at concentration 50 g/L) was performed to control methemoglobin (MetHb) formation. Moreover, an antioxidant control containing ascorbic acid (AA) at a concentration of 10 µg/mL was prepared, while AAPH at a concentration of 50 mmol/L was an oxidizing agent. Antipsychotics at concentrations equaling their maximum therapeutic plasma concentrations (TPCmax), as well as 5-fold higher (5 × TPCmax) and 5-fold lower than TPCmax (1/5 × TPCmax), and the oxidizing agent AAPH at a concentration of 50 mmol/L, were added to 2% RBC suspension. Controls and tested samples were incubated at 37 °C. […] For each measurement, 0.5 mL samples were taken from incubated Eppendorf tubes and centrifuged (3000 rpm, 10 min). […] The percentage of hemolysis was calculated with the following formula:Hemolysis (%) = (Asample/Atotal hemolysis) × 100%(1) where Asample—absorbance of the test sample; Atotal hemolysis—the absorbance of the reference sample with 2% Triton X solution, corresponding to complete hemolysis.

[6] = system: human erythrocytes; settings: 80 μg/L, AAPH 50 mmol/L
Experimental: The blood samples were centrifuged (3000 rpm, 10 min, 20 °C, Micro 22 R centrifuge, Hettich Zentrifugen, Tuttlingen, Germany) to separate erythrocytes from the plasma and washed three times with 0.9% saline (NaCl). […] The erythrocytes were suspended in 0.9% saline. As control of basal hemolysis, erythrocytes were incubated with 0.9% NaCl. For total hemolysis control erythrocytes were incubated with 2.0% v/v Triton X-100. Incubation with Triton X-100 and K4[Fe(CN)6] (at concentration 50 g/L) was performed to control methemoglobin (MetHb) formation. Moreover, an antioxidant control containing ascorbic acid (AA) at a concentration of 10 µg/mL was prepared, while AAPH at a concentration of 50 mmol/L was an oxidizing agent. Antipsychotics at concentrations equaling their maximum therapeutic plasma concentrations (TPCmax), as well as 5-fold higher (5 × TPCmax) and 5-fold lower than TPCmax (1/5 × TPCmax), and the oxidizing agent AAPH at a concentration of 50 mmol/L, were added to 2% RBC suspension. Controls and tested samples were incubated at 37 °C. […] The percentage of hemolysis was calculated with the following formula:Hemolysis (%) = (Asample/Atotal hemolysis) × 100%(1) where Asample—absorbance of the test sample; Atotal hemolysis—the absorbance of the reference sample with 2% Triton X solution, corresponding to complete hemolysis.

[7] = molecular target: T4, recombinant human β-amyloid (1–42) (Homo sapiens, UniProt P05067); experiment: Beta-amyloid aggregation, Thioflavin T fluorescence; assay type: biochemical; settings: 24 and 48 h; both tested concentrations
T4 construct: recombinant human β-amyloid (1–42; ultrapure); purchased Sigma-Aldrich (St. Louis, MO, USA)
T4 sequence (P05067 672-713 limits assumed): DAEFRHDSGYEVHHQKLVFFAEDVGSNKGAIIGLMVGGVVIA
Method in brief: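 Aβ42 (DMSO stock, pre-warmed 15 min at 37 °C) at 20 μmol/L final incubated with antipsychotics at TPC and 1/2 × TPC, with 5 µmol/L ThT added. Fluorescence (Ex/Em 440/484 nm, room temperature) read at 10, 30, 60, 90 min, 24 and 48 h; peptide-only control set as 100% aggregation.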

OCCOCCN1CCN(C2=Nc3ccccc3Sc3ccccc32)CC1 [Quetiapine, quetiapine]
Vmax(i) BuChE ([1]; compound at its IC50): 0.138 ± 0.058 A/min
Vmax(i) BuChE ([1]; compound at ½ IC50): 0.239 ± 0.026 A/min
type of inhibition of BuChE ([1]; from Km(i), Vmax(i) vs Km, Vmax, mixed inhibition): same type of inhibition
IC50 [2]: 6.08 ± 1.63 µM
CI (combination index), BuChE ([3]; donepezil 2 μmol/L + antipsychotic at TPCmax): 0.64
CI (combination index), BuChE ([3]; donepezil 5 μmol/L + antipsychotic at TPCmax): 0.64
CI (combination index), BuChE ([3]; donepezil 10 μmol/L + antipsychotic at TPCmax): 0.71
CI (combination index), BuChE ([3]; donepezil 20 μmol/L + antipsychotic at TPCmax): 0.75
CI (combination index), BuChE ([3]; donepezil 50 μmol/L + antipsychotic at TPCmax): 0.85
CI (combination index), BuChE ([3]; rivastigmine 0.05 μmol/L + antipsychotic at TPCmax): 2.24
CI (combination index), BuChE ([3]; rivastigmine 0.1 μmol/L + antipsychotic at TPCmax): 1.42
AChE reaction velocity ([4]; over 4000 µg/L (two ends of the printed span), control 0.264 ± 0.014 A/min): 0.257 ± 0.016 A/min and 0.241 ± 0.013 A/min
IC50 ([4]; theoretical values calculated on the basis of extrapolated plots): > 100 µM
methemoglobin formation with AAPH ([5]; 80 μg/L): 17.1%
methemoglobin formation with AAPH ([5]; 400 μg/L): 18.8%
RBCs hemolysis with AAPH ([6]; 5 h, AAPH control 53.4%): 23.9%
RBCs hemolysis with AAPH ([6]; 24 h, AAPH control 45.9%): 51.9%
effect on Aβ aggregation after a longer incubation time [7]: substantially inhibit
